Literature values as cited in US20110287113A1, “TREATMENT OF PSORIASIS” (Insense Limited, priority 2009, published 2011).

Assays:
[1] = under normal conditions
[2] = under normal conditions; remark: listed apart in the source
[3] = at 25° C.

| SMILES | time to total (100%) decomposition [1] | other results |
| --- | --- | --- |
| N[C@@H](CSN=O)C(=O)O [S-nitrosocysteine] | within minutes |  |
| [N]=O [NO, nitric oxide] |  | maximum solubility in water [2]: approximately 1.7 mM |
| O=NO [nitrite] |  | pKa [3]: 3.4 |
| N[C@@H](CCC(=O)N[C@@H](CSN=O)C(=O)NCC(=O)O)C(=O)O [S-nitrosoglutathione] | hours/days |  |
